Test results published in ChEMBL document CHEMBL5050844 (2019).

What was measured:
[1] = Induction of allogenic human T cell activation at 3 uM assessed fold increase in cell proliferation; type: functional, T cell line
[2] = Induction of anti-CD3/CD28 antibodies-stimulated human CD8+ T cell activation at 10 uM assessed fold increase in CD69 expression measured by flow cytometry analysis; type: functional, T cell line
[3] = Induction of anti-CD3/CD28 antibodies-stimulated human T cell activation at 4 uM assessed fold increase in IL-2 secretion measured by ELISA assay; type: functional, T cell line
[4] = Induction of activation of human CD56+ CD3- NK cells co-cultured with human K562 cells in 1:1 ratio and assessed as increase in TNF-alpha secretion at 10 uM measured by ELISA assay; type: functional, Natural killer cell
[5] = Induction of anti-CD3/CD28 antibodies-stimulated human CD4+ T cell activation at 1.11 uM assessed fold increase in CD69 expression measured by flow cytometry analysis; type: functional, T cell line
[6] = Induction of anti-CD3/CD28 antibodies-stimulated human T cell activation at 10 uM assessed fold increase in TNF-alpha secretion measured by ELISA assay; type: functional, T cell line
[7] = Induction of anti-CD3 antibodies-stimulated human CD4+ T cell activation at 1.11 uM assessed fold increase in CD69 expression measured by flow cytometry analysis; type: functional, T cell line; further: reference of the scale not given here
[8] = Induction of anti-CD3 antibodies-stimulated human T cell activation at 10 uM assessed fold increase in TNF-alpha secretion measured by ELISA assay; type: functional, T cell line; further: reference of the scale not given here
[9] = Induction of anti-CD3 antibodies-stimulated human T cell activation at 1.11 uM assessed fold increase in GM-CSF secretion measured by ELISA assay; type: functional, T cell line; further: reference of the scale not given here
[10] = Induction of activation of human CD56+ CD3- NK cells co-cultured with human K562 cells in 1:1 ratio and assessed as increase in IFN-gamma secretion at 2.5 uM measured by ELISA assay; type: functional, Natural killer cell
[11] = Induction of anti-CD3/CD28 antibodies-stimulated human CD8+ T cell activation at 10 uM assessed fold increase in cell proliferation measured by flow cytometry analysis; type: functional, T cell line
[12] = Induction of anti-CD3/CD28 antibodies-stimulated human T cell activation at 1.11 uM assessed fold increase in GM-CSF secretion measured by ELISA assay; type: functional, T cell line
[13] = Induction of anti-CD3/CD28 antibodies-stimulated human anergic T cell activation at 1.11 uM assessed fold increase in IFN-gamma secretion measured by ELISA assay; type: functional, T cell line
[14] = Induction of activation of human CD56+ CD3- NK cells co-cultured with human K562 cells in 1:1 ratio and assessed as increase in TNF-alpha secretion at 2.5 uM measured by ELISA assay; type: functional, Natural killer cell
[15] = Induction of anti-CD3/CD28 antibodies-stimulated human T cell activation at 1 uM assessed fold increase in IL-2 secretion measured by ELISA assay; type: functional, T cell line
[16] = Induction of anti-CD3/CD28 antibodies-stimulated human anergic T cell activation at 0.37 uM assessed fold increase in IFN-gamma secretion measured by ELISA assay; type: functional, T cell line
[17] = Induction of anti-CD3/CD28 antibodies-stimulated human T cell activation at 0.3 uM assessed fold increase in IL-2 secretion measured by ELISA assay; type: functional, T cell line
[18] = Induction of anti-CD3/CD28 antibodies-stimulated human CD4+ T cell activation at 1.11 uM assessed fold increase in cell proliferation measured by flow cytometry analysis; type: functional, T cell line
[19] = Induction of anti-CD3/CD28 antibodies-stimulated human CD4+ T cell activation at 10 uM assessed fold increase in CD69 expression measured by flow cytometry analysis; type: functional, T cell line
[20] = Induction of anti-CD3 antibodies-stimulated human exhausted T cell activation assessed fold increase in IL-2 secretion measured by ELISA assay; type: functional, T cell line; further: reference of the scale not given here
[21] = Induction of allogenic human T cell activation at 10 uM assessed fold increase in cell proliferation; type: functional, T cell line
[22] = Induction of anti-CD3 antibodies-stimulated human T cell activation at 8 uM assessed fold increase in CD25 expression measured by ELISA assay; type: functional, T cell line; further: reference of the scale not given here
[23] = Induction of anti-CD3/CD28 antibodies-stimulated human T cell activation at 4 uM assessed fold increase in CD25 expression measured by ELISA assay; type: functional, T cell line
[24] = Induction of anti-CD3 antibodies-stimulated human CD8+ T cell activation at 1.11 uM assessed fold increase in CD69 expression measured by flow cytometry analysis; type: functional, T cell line; further: reference of the scale not given here
[25] = Induction of anti-CD3/CD28 antibodies-stimulated human CD4+ T cell activation at 10 uM assessed fold increase in cell proliferation measured by flow cytometry analysis; type: functional, T cell line
[26] = Induction of anti-CD3 antibodies-stimulated human T cell activation at 1.11 uM assessed fold increase in IFN-gamma secretion measured by ELISA assay; type: functional, T cell line; further: reference of the scale not given here
[27] = Induction of activation of human CD56+ CD3- NK cells co-cultured with human K562 cells in 1:1 ratio and assessed as increase in TNF-alpha secretion at 0.625 uM measured by ELISA assay; type: functional, Natural killer cell
[28] = Induction of anti-CD3 antibodies-stimulated human CD8+ T cell activation at 10 uM assessed fold increase in CD69 expression measured by flow cytometry analysis; type: functional, T cell line; further: reference of the scale not given here
[29] = Induction of activation of human CD56+ CD3- NK cells co-cultured with human K562 cells in 1:1 ratio and assessed as increase in IFN-gamma secretion at 10 uM measured by ELISA assay; type: functional, Natural killer cell
[30] = Induction of anti-CD3 antibodies-stimulated human exhausted T cell activation assessed fold increase in IFN-gamma secretion measured by ELISA assay; type: functional, T cell line; further: reference of the scale not given here
[31] = Induction of anti-CD3/CD28 antibodies-stimulated human CD8+ T cell activation at 1.11 uM assessed fold increase in cell proliferation measured by flow cytometry analysis; type: functional, T cell line
[32] = Induction of anti-CD3 antibodies-stimulated human T cell activation at 1 uM assessed fold increase in CD25 expression measured by ELISA assay; type: functional, T cell line; further: reference of the scale not given here
[33] = Induction of anti-CD3 antibodies-stimulated human T cell activation at 1.11 uM assessed fold increase in TNF-alpha secretion measured by ELISA assay; type: functional, T cell line; further: reference of the scale not given here
[34] = Induction of anti-CD3/CD28 antibodies-stimulated human T cell activation at 1.11 uM assessed fold increase in TNF-alpha secretion measured by ELISA assay; type: functional, T cell line
[35] = Induction of activation of human CD56+ CD3- NK cells co-cultured with human K562 cells in 1:1 ratio and assessed as increase in IFN-gamma secretion at 0.625 uM measured by ELISA assay; type: functional, Natural killer cell
[36] = Induction of anti-CD3/CD28 antibodies-stimulated human T cell activation at 1 uM assessed fold increase in CD25 expression measured by ELISA assay; type: functional, T cell line
[37] = Induction of anti-CD3/CD28 antibodies-stimulated human anergic T cell activation at 10 uM assessed fold increase in IFN-gamma secretion measured by ELISA assay; type: functional, T cell line
B cell = test: Induction of anti-IgM-stimulated human CD20+ B cell activation at 10 to 1000 uM assessed as increase in CD69 expression measured as mean fluorescence intensity AUC by flow cytometry analysis; type: functional, cell-based; conditions: dose 10-1000 µM

Row | SMILES | fold change (FC) [1] | fold change (FC) [2] | fold change (FC) [4] | fold change (FC) [5] | fold change (FC) [7] | fold change (FC) [10] | fold change (FC) [11] | fold change (FC) [13] | fold change (FC) [14] | fold change (FC) [15] | fold change (FC) [16] | fold change (FC) [17] | fold change (FC) [18] | fold change (FC) [19] | fold change (FC) [20] | fold change (FC) [21] | fold change (FC) [24] | fold change (FC) [25] | fold change (FC) [27] | fold change (FC) [28] | further results
1 | COC1CN(Cc2cc3c(c(C(F)(F)F)c2)CN(c2cccc([C@@](C)(F)C(F)(F)c4nncn4C)c2)C3=O)C1 | <=2 | 1.201 | >=5 | 1.201 | 1.401 | >=5 | >4 | 2.51 | 2.01 | 5 | <=2.5 | 2.51 | >4 | 1.401 | <=2.5 | <=2 | 1.201 | >4 | 1.01 | 1.401 | fold change (FC) [3]: >=7.5; fold change (FC) [6]: 2.01; fold change (FC) [8]: 1.51; fold change (FC) [9]: 1.51; fold change (FC) [12]: 2.01; fold change (FC) [22]: >=1.001; fold change (FC) [23]: 1.31; fold change (FC) [26]: 3.01; fold change (FC) [29]: >=5; fold change (FC) [30]: >1.61; fold change (FC) [31]: 3.01; fold change (FC) [32]: >=1.001; fold change (FC) [33]: <=1.5; fold change (FC) [34]: 1.51; fold change (FC) [35]: 2.01; fold change (FC) [36]: 1.31; fold change (FC) [37]: >4.01
2 | C[C@@H](Sc1nncn1C)c1cccc(NC(=O)c2cccc(C(F)(F)F)n2)c1 | <=2 | 1.201 | 1.01 | 1.201 | >1.601 | 1.01 | >4 | <=2.5 | 1.01 | 1.01 | <=2.5 | 1.01 | 3.01 | 1.401 | <=2.5 | <=2 | 1.201 | >4 | 1.01 | 1.201 | fold change (FC) [3]: 1.01; AUC (B cell): < 0.5; fold change (FC) [22]: 0.601; fold change (FC) [23]: 1.01; fold change (FC) [29]: 1.01; fold change (FC) [30]: <=1.4; fold change (FC) [31]: 2.01; fold change (FC) [32]: <=0.6; fold change (FC) [35]: <=1; fold change (FC) [36]: 1.01; fold change (FC) [37]: <=2.5
3 | Cn1cnnc1CC1(c2cccc(N3Cc4c(cc(CN5CCC6(CC6)C5)cc4C(F)(F)F)C3=O)c2)COC1 | >3 | 1.201 | >=5 | >1.601 | >1.601 | >=5 | >4 | 2.51 | >=5 | >=7.5 | <=2.5 | >=7.5 | >4 | >1.601 | 2.51 | >3 | 1.401 | >4 | 2.01 | 1.401 | AUC (B cell): > 1.51; fold change (FC) [6]: >4; fold change (FC) [8]: 2.01; fold change (FC) [9]: 2.01; fold change (FC) [12]: >4; fold change (FC) [26]: >4; fold change (FC) [29]: >=5; fold change (FC) [30]: <=1.4; fold change (FC) [31]: >4; fold change (FC) [32]: >=1.001; fold change (FC) [33]: 2.01; fold change (FC) [34]: 2.01; fold change (FC) [35]: 2.01; fold change (FC) [36]: 1.31; fold change (FC) [37]: >4.01
